Assay results: article PMC3914206

Key:
Type in all cases: binding
Conditions in all cases: Compound Concentration 10 µM
panel of 442 kinases [1] = biological target: T1, panel of 442 kinases (Homo sapiens, UniProt P50613)
T1 construct: purchased KINOMEscan
Description: (§1) We assessed the selectivity of members of this scaffold using the KINOMEscan methodology across a near comprehensive panel of 442 kinases [[18,27]].

panel of 442 kinases [2] = biological target: T2, panel of 442 kinases (Homo sapiens, UniProt P00533, L858R/T790M)
T2 construct: purchased KINOMEscan
T2 sequence (P00533 25-1210 T790M/L858R): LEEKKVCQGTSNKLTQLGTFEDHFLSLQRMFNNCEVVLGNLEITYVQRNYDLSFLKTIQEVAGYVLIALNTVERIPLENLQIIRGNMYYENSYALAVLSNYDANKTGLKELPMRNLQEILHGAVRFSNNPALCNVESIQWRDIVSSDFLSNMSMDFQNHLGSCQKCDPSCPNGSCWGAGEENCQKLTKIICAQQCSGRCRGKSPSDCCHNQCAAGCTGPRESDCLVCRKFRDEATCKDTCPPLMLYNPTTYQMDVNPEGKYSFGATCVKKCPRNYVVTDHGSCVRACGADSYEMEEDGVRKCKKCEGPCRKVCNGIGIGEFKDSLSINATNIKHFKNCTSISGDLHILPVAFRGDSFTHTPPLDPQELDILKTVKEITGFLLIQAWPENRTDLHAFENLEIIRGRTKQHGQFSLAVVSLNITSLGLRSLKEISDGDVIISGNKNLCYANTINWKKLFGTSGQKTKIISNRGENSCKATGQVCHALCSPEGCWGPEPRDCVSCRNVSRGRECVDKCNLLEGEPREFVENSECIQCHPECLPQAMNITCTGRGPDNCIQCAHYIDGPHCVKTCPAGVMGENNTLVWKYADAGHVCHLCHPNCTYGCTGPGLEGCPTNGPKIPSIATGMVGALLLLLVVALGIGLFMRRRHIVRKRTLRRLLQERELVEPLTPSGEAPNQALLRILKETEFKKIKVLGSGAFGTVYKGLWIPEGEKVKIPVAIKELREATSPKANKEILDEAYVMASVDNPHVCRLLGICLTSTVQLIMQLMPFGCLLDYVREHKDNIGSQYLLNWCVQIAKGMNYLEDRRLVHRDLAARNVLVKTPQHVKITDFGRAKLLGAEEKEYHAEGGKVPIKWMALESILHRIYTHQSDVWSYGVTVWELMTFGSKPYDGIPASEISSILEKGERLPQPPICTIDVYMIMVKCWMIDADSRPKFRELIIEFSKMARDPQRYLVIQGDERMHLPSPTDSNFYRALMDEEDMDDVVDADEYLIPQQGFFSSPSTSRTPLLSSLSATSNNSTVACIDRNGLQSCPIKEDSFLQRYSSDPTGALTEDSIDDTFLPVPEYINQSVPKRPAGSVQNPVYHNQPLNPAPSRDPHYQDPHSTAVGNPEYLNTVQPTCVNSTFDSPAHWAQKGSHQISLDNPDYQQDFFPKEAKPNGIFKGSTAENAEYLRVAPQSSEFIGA
Description: as §1

panel of 442 kinases [3] = biological target: T3, panel of 442 kinases (Homo sapiens, UniProt Q13627)
T3 construct: purchased KINOMEscan
Description: as §1

T1 sequence (P50613 whole entry): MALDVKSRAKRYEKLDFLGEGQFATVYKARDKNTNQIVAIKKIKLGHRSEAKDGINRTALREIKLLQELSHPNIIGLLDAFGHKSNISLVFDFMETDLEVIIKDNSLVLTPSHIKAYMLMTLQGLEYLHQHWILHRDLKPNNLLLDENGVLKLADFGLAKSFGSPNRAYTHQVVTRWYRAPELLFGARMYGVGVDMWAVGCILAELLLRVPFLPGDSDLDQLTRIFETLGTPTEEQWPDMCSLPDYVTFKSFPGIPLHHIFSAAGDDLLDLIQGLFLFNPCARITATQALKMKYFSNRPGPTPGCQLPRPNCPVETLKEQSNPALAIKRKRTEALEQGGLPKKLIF

| SMILES | KINOMEscan: CDK7 (panel of 442 kinases [1]) | KINOMEscan: EGFR(L858R,T790M) (panel of 442 kinases [2]) | KINOMEscan: DYRK1A (panel of 442 kinases [3]) |
| --- | --- | --- | --- |
| COc1cc(C(=O)N2CCC(N3CCN(C)CC3)CC2)ccc1Nc1ncc2c(n1)N(C1CCCC1)c1ccccc1C(=O)N2C [Compound 25, 11-cyclopentyl-2-((2-methoxy-4-(4-(4-methylpiperazin-1-yl)piperidine-1-carbonyl)phenyl)amino)-5-methyl-5H-benzo[e]pyrimido[5,4-b][1,4]diazepin-6(11H)-one] | 18 | 100 | 100 |
| CCOc1cc(C(=O)N2CCC(N3CCN(C)CC3)CC2)ccc1Nc1ncc2c(n1)N(C1CCCC1)c1ccccc1C(=O)N2C [Compound 26] | 57 | 78 | 88 |
| COc1cc(C(=O)N2CCC(N3CCN(C)CC3)CC2)ccc1Nc1ncc2c(n1)N1CCc3cccc(c31)C(=O)N2C [Compound 24] | – | – | 67 |
| COc1cc(C(=O)N2CCC(N3CCN(C)CC3)CC2)ccc1Nc1ncc2c(n1)N(C)c1ccccc1C(=O)N2C [15 (LRRK2-IN-1)] | 86 | 84 | 99 |
